# Reference: PMC5218480 (PLoS ONE, 2017)
# Test system: MV-4-11 cells
# Assay: Gene expression microarray analysis (Affymetrix PrimeView) and GSEA
# Type: cell-based, human
# Parameters: RFU PODN (11730768_x_at) / Fold change /veh PODN (11730768_x_at) / RFU LINC00158 (11744669_a_at) / Fold change /veh LINC00158 (11744669_a_at) / RFU DUSP10 (11751237_a_at) / Fold change /veh DUSP10 (11751237_a_at) / RFU ID3 (11757404_x_at) / Fold change /veh ID3 (11757404_x_at) / RFU PLEKHG5 (11737974_s_at) / Fold change /veh PLEKHG5 (11737974_s_at) / RFU LRRC4B (11730491_at) / Fold change /veh LRRC4B (11730491_at) / RFU GIMAP4 (11747438_a_at) / Fold change /veh GIMAP4 (11747438_a_at) / RFU KRT8 (11758183_x_at) / Fold change /veh KRT8 (11758183_x_at) / RFU CNN1 (11734310_a_at) / Fold change /veh CNN1 (11734310_a_at) / RFU VPS37D (11726825_at) / Fold change /veh VPS37D (11726825_at) / RFU C10orf10 (11716522_x_at) / Fold change /veh C10orf10 (11716522_x_at) / RFU KIR2DL2 /// KIR2DL4 /// KIR2DL5A /// KIR2DL5B /// KIR2DS1 /// KIR2DS2 /// KIR2DS3 /// KIR2DS4 /// KIR3DL3 /// KIR3DL3 /// KIR3DS1 (11738374_at) / Fold change /veh KIR2DL2 /// KIR2DL4 /// KIR2DL5A /// KIR2DL5B /// KIR2DS1 /// KIR2DS2 /// KIR2DS3 /// KIR2DS4 /// KIR3DL3 /// KIR3DL3 /// KIR3DS1 (11738374_at) / RFU C1QL1 (11718748_at) / Fold change /veh C1QL1 (11718748_at) / RFU TMPRSS4 (11747572_a_at) / Fold change /veh TMPRSS4 (11747572_a_at) / RFU HAMP (11756126_x_at) / Fold change /veh HAMP (11756126_x_at) / RFU RNFT2 (11725882_a_at) / Fold change /veh RNFT2 (11725882_a_at) / RFU NR4A2 (11747474_a_at) / Fold change /veh NR4A2 (11747474_a_at) / RFU ABCC12 (11746883_a_at) / Fold change /veh ABCC12 (11746883_a_at) / RFU TMEM136 (11760407_x_at) / Fold change /veh TMEM136 (11760407_x_at) / RFU CLDN22 /// WWC2 (11732394_at) / Fold change /veh CLDN22 /// WWC2 (11732394_at) / RFU HLA-DPB1 (11760878_x_at) / Fold change /veh HLA-DPB1 (11760878_x_at) / RFU SPINT1 (11716480_a_at) / Fold change /veh SPINT1 (11716480_a_at) / RFU GAP43 (11754022_s_at) / Fold change /veh GAP43 (11754022_s_at) / RFU A4GNT (11735810_at) / Fold change /veh A4GNT (11735810_at) / RFU PRB3 (11715151_x_at) / Fold change /veh PRB3 (11715151_x_at) / RFU TUBB4B (11761932_at) / Fold change /veh TUBB4B (11761932_at) / RFU CAPN14 (11732068_a_at) / Fold change /veh CAPN14 (11732068_a_at) / RFU TMCC2 (11721928_a_at) / Fold change /veh TMCC2 (11721928_a_at) / RFU IRGQ (11745062_a_at) / Fold change /veh IRGQ (11745062_a_at) / RFU FAM174B (11720279_a_at) / Fold change /veh FAM174B (11720279_a_at) / RFU TMPRSS4 (11748680_a_at) / Fold change /veh TMPRSS4 (11748680_a_at) / RFU FAM212B (11763350_a_at) / Fold change /veh FAM212B (11763350_a_at) / RFU PLEKHG5 (11743358_a_at) / Fold change /veh PLEKHG5 (11743358_a_at) / RFU ZSCAN30 (11745921_a_at) / Fold change /veh ZSCAN30 (11745921_a_at) / RFU CMKLR1 (11741424_a_at) / Fold change /veh CMKLR1 (11741424_a_at) / RFU LOC101060620 /// MAPK8IP1 (11723275_at) / Fold change /veh LOC101060620 /// MAPK8IP1 (11723275_at) / RFU SPTSSB (11747773_x_at) / Fold change /veh SPTSSB (11747773_x_at) / RFU PRSS12 (11739890_at) / Fold change /veh PRSS12 (11739890_at) / RFU BIN1 (11741810_x_at) / Fold change /veh BIN1 (11741810_x_at) / RFU WNT11 (11732464_a_at) / Fold change /veh WNT11 (11732464_a_at) / RFU C10orf10 (11716521_a_at) / Fold change /veh C10orf10 (11716521_a_at) / RFU C5orf56 (11738089_at) / Fold change /veh C5orf56 (11738089_at) / RFU CYB561 (11721691_x_at) / Fold change /veh CYB561 (11721691_x_at) / RFU ANKRD19P (11752326_a_at) / Fold change /veh ANKRD19P (11752326_a_at) / RFU OR2T12 /// OR2T33 /// OR2T8 (11738714_s_at) / Fold change /veh OR2T12 /// OR2T33 /// OR2T8 (11738714_s_at) / RFU VCAN (11748164_a_at) / Fold change /veh VCAN (11748164_a_at) / RFU JSRP1 (11732532_at) / Fold change /veh JSRP1 (11732532_at) / RFU KRTAP10-11 (11738290_x_at) / Fold change /veh KRTAP10-11 (11738290_x_at) / RFU MYO3A (11730013_a_at) / Fold change /veh MYO3A (11730013_a_at) / RFU EBF3 (11725865_a_at) / Fold change /veh EBF3 (11725865_a_at) / RFU CAMK2N1 (11719241_x_at) / Fold change /veh CAMK2N1 (11719241_x_at) / RFU C5orf56 (11738088_a_at) / Fold change /veh C5orf56 (11738088_a_at) / RFU OLFML3 (11715873_a_at) / Fold change /veh OLFML3 (11715873_a_at) / RFU LOC100653217 /// NTM (11731650_a_at) / Fold change /veh LOC100653217 /// NTM (11731650_a_at) / RFU MAPK11 (11762145_a_at) / Fold change /veh MAPK11 (11762145_a_at) / RFU FIZ1 (11724087_x_at) / Fold change /veh FIZ1 (11724087_x_at) / RFU OASL (11726364_x_at) / Fold change /veh OASL (11726364_x_at) / RFU SOX15 (11748057_x_at) / Fold change /veh SOX15 (11748057_x_at) / RFU CD79A (11719716_a_at) / Fold change /veh CD79A (11719716_a_at) / RFU HIST1H1D (11736915_at) / Fold change /veh HIST1H1D (11736915_at) / RFU CASKIN2 (11723855_a_at) / Fold change /veh CASKIN2 (11723855_a_at) / RFU LOC730098 (11760151_x_at) / Fold change /veh LOC730098 (11760151_x_at) / RFU OR4N2 (11742367_at) / Fold change /veh OR4N2 (11742367_at) / RFU PRRT2 (11749266_a_at) / Fold change /veh PRRT2 (11749266_a_at) / RFU SNX32 (11753110_a_at) / Fold change /veh SNX32 (11753110_a_at) / RFU CDHR5 (11726645_a_at) / Fold change /veh CDHR5 (11726645_a_at) / RFU RCAN1 (11760418_a_at) / Fold change /veh RCAN1 (11760418_a_at) / RFU FAM167A (11723789_a_at) / Fold change /veh FAM167A (11723789_a_at) / RFU FAM26E (11764081_at) / Fold change /veh FAM26E (11764081_at) / RFU ISYNA1 (11749810_s_at) / Fold change /veh ISYNA1 (11749810_s_at) / RFU ACY1 (11761880_at) / Fold change /veh ACY1 (11761880_at) / RFU 11764098_at / Fold change /veh 11764098_at / RFU SAMD14 (11745864_x_at) / Fold change /veh SAMD14 (11745864_x_at) / RFU NPB (11741838_a_at) / Fold change /veh NPB (11741838_a_at) / RFU TMPRSS6 (11731388_a_at) / Fold change /veh TMPRSS6 (11731388_a_at) / RFU KRTAP10-2 (11738614_at) / Fold change /veh KRTAP10-2 (11738614_at) / RFU ARHGAP8 /// PRR5-ARHGAP8 (11727945_x_at) / Fold change /veh ARHGAP8 /// PRR5-ARHGAP8 (11727945_x_at) / RFU KRTAP5-7 /// NADSYN1 (11734609_at) / Fold change /veh KRTAP5-7 /// NADSYN1 (11734609_at) / RFU RASL12 (11751679_a_at) / Fold change /veh RASL12 (11751679_a_at) / RFU CDKN2B (11736163_a_at) / Fold change /veh CDKN2B (11736163_a_at) / RFU PRF1 (11729649_at) / Fold change /veh PRF1 (11729649_at) / RFU, ZNF638 /// ZNF638-IT1 / Fold change vs veh, ZNF638 /// ZNF638-IT1 / RFU, PANK3 / Fold change vs veh, PANK3 / RFU, SH3YL1 / Fold change vs veh, SH3YL1 / RFU, ZEB2 / Fold change vs veh, ZEB2 / RFU, NRIP1 / Fold change vs veh, NRIP1 / RFU, PTTG1IP / Fold change vs veh, PTTG1IP / RFU, CAPN2 / Fold change vs veh, CAPN2 / RFU, MED14 / Fold change vs veh, MED14 / RFU, SNORA58 / Fold change vs veh, SNORA58 / RFU, C1orf63 / Fold change vs veh, C1orf63 / RFU, LRRFIP1 / Fold change vs veh, LRRFIP1 / RFU, NDUFAF7 / Fold change vs veh, NDUFAF7 / RFU, SLC12A2 / Fold change vs veh, SLC12A2 / RFU, IBTK / Fold change vs veh, IBTK / RFU, ESF1 / Fold change vs veh, ESF1 / Fold change vs veh, TMEM50B / RFU, TAOK1 / Fold change vs veh, TAOK1 / RFU, ACBD3 / Fold change vs veh, ACBD3 / RFU, TMA16 / Fold change vs veh, TMA16 / RFU, RWDD3 / Fold change vs veh, RWDD3 / RFU, BCAT1 / Fold change vs veh, BCAT1 / RFU, EDEM3 / Fold change vs veh, EDEM3 / RFU, TMEM33 / Fold change vs veh, TMEM33 / RFU, WDR75 / Fold change vs veh, WDR75 / RFU, AHCTF1 / Fold change vs veh, AHCTF1 / RFU, TFRC / Fold change vs veh, TFRC / RFU, ZDHHC17 / Fold change vs veh, ZDHHC17 / RFU, NOM1 / Fold change vs veh, NOM1 / RFU, ARL8B / Fold change vs veh, ARL8B / RFU, ZBTB11 / Fold change vs veh, ZBTB11 / RFU, TAMM41 / Fold change vs veh, TAMM41 / RFU, KIAA1704 /// LOC100996395 / Fold change vs veh, KIAA1704 /// LOC100996395 / RFU, ING1 / Fold change vs veh, ING1 / RFU, TRMT61B / Fold change vs veh, TRMT61B / RFU, FUBP3 / Fold change vs veh, FUBP3 / RFU, TP53 / Fold change vs veh, TP53 / RFU, TNKS2 / Fold change vs veh, TNKS2 / RFU, ZFP14 / Fold change vs veh, ZFP14 / RFU, ACTR2 / Fold change vs veh, ACTR2 / RFU, PPP3R1 / Fold change vs veh, PPP3R1 / RFU, PIK3R1 / Fold change vs veh, PIK3R1 / RFU, HNRNPA1 / Fold change vs veh, HNRNPA1 / RFU, RNF170 / Fold change vs veh, RNF170 / RFU, ZNF28 / Fold change vs veh, ZNF28 / RFU, RNGTT / Fold change vs veh, RNGTT / RFU, OGT / Fold change vs veh, OGT / RFU, BRD1 / Fold change vs veh, BRD1 / RFU, MARS / Fold change vs veh, MARS / RFU, ZNF655 / Fold change vs veh, ZNF655 / RFU, FAHD1 / Fold change vs veh, FAHD1 / RFU, BDP1 / Fold change vs veh, BDP1 / RFU, LRRCC1 / Fold change vs veh, LRRCC1 / RFU, ARID1A / Fold change vs veh, ARID1A / RFU, ZNF146 / Fold change vs veh, ZNF146 / RFU, ZNF330 / Fold change vs veh, ZNF330 / RFU, GPN3 / Fold change vs veh, GPN3 / RFU, C9orf123 / Fold change vs veh, C9orf123 / RFU, N4BP2L2 / Fold change vs veh, N4BP2L2 / RFU, ARFIP1 / Fold change vs veh, ARFIP1 / RFU, FAM179B / Fold change vs veh, FAM179B / RFU, BCL10 / Fold change vs veh, BCL10 / RFU, UHRF1BP1L / Fold change vs veh, UHRF1BP1L / RFU, BET1 / Fold change vs veh, BET1 / RFU, CNOT2 / Fold change vs veh, CNOT2 / RFU, ZNF268 / Fold change vs veh, ZNF268 / Fold change vs veh, ZNF507 / RFU, DGCR2 / Fold change vs veh, DGCR2 / RFU, WDSUB1 / Fold change vs veh, WDSUB1 / Fold change vs veh, HSP90B1 /// MIR3652 / RFU, ADSS / Fold change vs veh, ADSS / RFU, GK / Fold change vs veh, GK / RFU, ZNF148 / Fold change vs veh, ZNF148 / RFU, TAF9 / Fold change vs veh, TAF9 / RFU, SLC1A5 / Fold change vs veh, SLC1A5 / RFU, SLMO2 / Fold change vs veh, SLMO2 / RFU, ABCC4 / Fold change vs veh, ABCC4 / RFU, LOC101060439 /// RAP1B / Fold change vs veh, LOC101060439 /// RAP1B / RFU, RFX7 / Fold change vs veh, RFX7 / RFU, GTPBP10 / Fold change vs veh, GTPBP10 / RFU, CNEP1R1 / Fold change vs veh, CNEP1R1 / RFU, BIVM-ERCC5 /// ERCC5 / Fold change vs veh, BIVM-ERCC5 /// ERCC5 / RFU, ILF3 / Fold change vs veh, ILF3 / RFU 11762660_at / Fold change /veh 11762660_at / RFU VCAN (11757783_s_at) / Fold change /veh VCAN (11757783_s_at) / RFU DDX43 (11728927_at) / Fold change /veh DDX43 (11728927_at) / RFU KRT8 (11758188_x_at) / Fold change /veh KRT8 (11758188_x_at) / RFU NKD1 (11759106_at) / Fold change /veh NKD1 (11759106_at) / RFU SRD5A1 (11742802_a_at) / Fold change /veh SRD5A1 (11742802_a_at) / RFU TPSAB1 /// TPSB2 (11721975_s_at) / Fold change /veh TPSAB1 /// TPSB2 (11721975_s_at) / RFU GSTM3 (11746129_a_at) / Fold change /veh GSTM3 (11746129_a_at) / RFU IL23R (11737362_x_at) / Fold change /veh IL23R (11737362_x_at) / RFU TMEM51 (11727254_a_at) / Fold change /veh TMEM51 (11727254_a_at) / RFU PIWIL2 (11732686_x_at) / Fold change /veh PIWIL2 (11732686_x_at) / RFU ORM1 (11744905_x_at) / Fold change /veh ORM1 (11744905_x_at) / RFU CCDC152 (11743942_at) / Fold change /veh CCDC152 (11743942_at) / RFU ECM1 (11717891_a_at) / Fold change /veh ECM1 (11717891_a_at) / RFU IL23R (11748794_a_at) / Fold change /veh IL23R (11748794_a_at) / RFU TNFAIP8L3 (11732012_x_at) / Fold change /veh TNFAIP8L3 (11732012_x_at) / RFU MBOAT4 (11741988_at) / Fold change /veh MBOAT4 (11741988_at) / RFU 11764193_at / Fold change /veh 11764193_at / RFU TMEM53 (11763286_at) / Fold change /veh TMEM53 (11763286_at) / RFU MAGEB2 (11727129_at) / Fold change /veh MAGEB2 (11727129_at) / RFU TMEM200A (11744735_a_at) / Fold change /veh TMEM200A (11744735_a_at) / RFU CCDC152 (11751479_a_at) / Fold change /veh CCDC152 (11751479_a_at) / RFU FAM211A (11726209_a_at) / Fold change /veh FAM211A (11726209_a_at) / RFU RGS16 (11746705_a_at) / Fold change /veh RGS16 (11746705_a_at) / RFU VCAN (11755009_s_at) / Fold change /veh VCAN (11755009_s_at) / RFU RHOB (11743442_s_at) / Fold change /veh RHOB (11743442_s_at) / RFU RGS16 (11720943_a_at) / Fold change /veh RGS16 (11720943_a_at) / RFU RGS16 (11720944_at) / Fold change /veh RGS16 (11720944_at) / RFU, VPS4B / Fold change vs veh, VPS4B / RFU, CREB1 / Fold change vs veh, CREB1 / RFU, DNAJC13 / Fold change vs veh, DNAJC13 / RFU, GNAQ / Fold change vs veh, GNAQ / RFU, CDK5R1 / Fold change vs veh, CDK5R1 / RFU, ZRANB3 / Fold change vs veh, ZRANB3 / RFU, CUL4A / Fold change vs veh, CUL4A / RFU, CCNY / Fold change vs veh, CCNY / RFU, UFL1 / Fold change vs veh, UFL1 / RFU, COG3 / Fold change vs veh, COG3 / RFU, DIAPH2 / Fold change vs veh, DIAPH2 / RFU, SKA2 / Fold change vs veh, SKA2 / RFU, AFF3 / Fold change vs veh, AFF3 / RFU, LMF1 / Fold change vs veh, LMF1 / RFU, IPO11 / Fold change vs veh, IPO11 / RFU, DFFB / Fold change vs veh, DFFB / RFU, FOXP1 / Fold change vs veh, FOXP1 / RFU, CARD8 / Fold change vs veh, CARD8 / RFU, STRN3 / Fold change vs veh, STRN3 / RFU, ADK / Fold change vs veh, ADK / RFU, RASSF2 / Fold change vs veh, RASSF2 / RFU, WIPF1 / Fold change vs veh, WIPF1 / RFU, LARP1B / Fold change vs veh, LARP1B / RFU, RASA1 / Fold change vs veh, RASA1 / RFU, RB1 / Fold change vs veh, RB1 / RFU, PPFIA1 / Fold change vs veh, PPFIA1 / RFU, MAT2A / Fold change vs veh, MAT2A / RFU, CCT5 / Fold change vs veh, CCT5 / RFU, WDR92 / Fold change vs veh, WDR92 / RFU, CUX1 / Fold change vs veh, CUX1 / RFU, TTC7A / Fold change vs veh, TTC7A / RFU, TMEM135 / Fold change vs veh, TMEM135 / RFU, DEPTOR / Fold change vs veh, DEPTOR / RFU, CPM / Fold change vs veh, CPM / RFU, DNAJB6 / Fold change vs veh, DNAJB6 / RFU, CACNA2D3 / Fold change vs veh, CACNA2D3 / RFU, DTX4 / Fold change vs veh, DTX4 / RFU, TFCP2 / Fold change vs veh, TFCP2 / RFU, GMCL1 /// GMCL1P1 / Fold change vs veh, GMCL1 /// GMCL1P1 / RFU, AEBP2 / Fold change vs veh, AEBP2 / RFU, SNHG1 /// SNORD22 /// SNORD25 /// SNORD26 /// SNORD27 /// SNORD28 /// SNORD29 /// SNORD31 / Fold change vs veh, SNHG1 /// SNORD22 /// SNORD25 /// SNORD26 /// SNORD27 /// SNORD28 /// SNORD29 /// SNORD31 / Fold change (Aza/veh), C12orf56 (ProbeSet 11735607_a_at) / Fold change (ACY-1035/veh), C12orf56 (ProbeSet 11735607_a_at) / Fold change (Aza/veh), FGFR1OP (ProbeSet 11751329_s_at) / Fold change (ACY-1035/veh), FGFR1OP (ProbeSet 11751329_s_at) / Fold change (Aza/veh), VPS36 (ProbeSet 11739960_a_at) / Fold change (ACY-1035/veh), VPS36 (ProbeSet 11739960_a_at) / RFU SYPL1 (11715823_x_at) / Fold change /veh SYPL1 (11715823_x_at) / RFU IGFBP7 (11715501_s_at) / Fold change /veh IGFBP7 (11715501_s_at) / RFU REEP3 (11722064_at) / Fold change /veh REEP3 (11722064_at) / RFU IGLL1 (11728026_x_at) / Fold change /veh IGLL1 (11728026_x_at): dose or concentration left out as unconfirmed
# Conditions: ProbeSet 11726661_s_at; LIST B
smiles,measurement,value
Nc1ccc(-c2cccs2)cc1NC(=O)c1ccc2c(c1)cc(C1CC1)n2CCN1CCOCC1 [ACY-1035],"RFU, GPN3",242.51 RFU
